Laboratory results reported in ChEMBL document CHEMBL4665898, “Semisynthetic Analogs of the Antibiotic Fidaxomicin-Design, Synthesis, and Biological Evaluation” (ACS Med Chem Lett, 2020).

Test system: Mycobacterium tuberculosis
Experiment: Antimycobacterial activity against multi-drug resistant Mycobacterium tuberculosis after 5 days in presence of 7H9 medium by CLSI-based broth microdilution method
Type: functional
Conditions: 120 h, time 5 day

CCc1c(Cl)c(O)c(Cl)c(O)c1C(=O)O[C@@H]1[C@@H](O)[C@@H](OC)[C@@H](OC/C2=C\C=C\C[C@H](O)/C(C)=C/[C@H](CC)[C@@H](O[C@@H]3OC(C)(C)[C@@H](OC(=O)C(C)C)[C@H](O)[C@@H]3O)/C(C)=C/C(C)=C/C[C@@H]([C@@H](C)O)OC2=O)O[C@H]1C
MIC: < 8 ng/mL
